biological target: TACE (Homo sapiens (Human), UniProt P78536); test: TACE inhibition test (in vitro); format: biochemical; settings: fluorescent synthetic substrate, 37° C., 1.5 hours
Procedure: The nucleotide sequence of TACE has been reported by Moss et al. (Moss, M. L. et al., Nature 1997, 385, 733-736). Accordingly, the cDNA of TACE was obtained according to the prescribed method from THP-1 cells or the like, and then incorporated the cDNA into an expression vector. Next, this vector was transformed into mammalian cells or insect cells, and TACE expression was obtained.
The TACE inhibition test was carried out by measuring TACE activity in the presence and the absence of the test substance using the thus-obtained TACE as an enzyme, and a fluorescent synthetic substrate Nma(N-methylanthranilic acid)-Leu-Ala-Gln-Ala-Val-Arg-Ser-Ser-Lys(Dnp(dinitrophenyl))-D-Arg-NH2 (SEQ ID NO: 1) including the TACE-cleaved sequence of a membrane-bound TNF as a substrate. The TACE inhibition test method is shown below.
Namely, 90 μL of an enzyme solution prepared with an assay buffer A (50 mM tris-hydrochloric acid buffer (pH 7.5) including 200 mM sodium chloride, 5 mM calcium chloride, 10 μM zinc sulfate, and 2 mg/mL bovine serum albumin) and 90 μL of a fluorescent synthetic substrate prepared with an assay buffer B (50 mM tris-hydrochloric acid buffer (pH 7.5) including 200 mM sodium chloride, 5 mM calcium chloride, 10 μM zinc sulfate, and 0.05% PLURONIC F-68) were mixed together, and reacted at 37° C. for 1.5 hours. Enzyme activity was then determined by measuring with a fluorescence intensity meter (Labsystems, Fluoroskan Ascent) at an excitation wavelength of 355 nm and a measurement wavelength of 460 nm.
From the enzyme activity in the presence or the absence of the test substance, the inhibition rate was determined, and the 50% inhibitiory concentration (IC50) of the test substance was calculated.

Sequence of TACE (P78536 215-824): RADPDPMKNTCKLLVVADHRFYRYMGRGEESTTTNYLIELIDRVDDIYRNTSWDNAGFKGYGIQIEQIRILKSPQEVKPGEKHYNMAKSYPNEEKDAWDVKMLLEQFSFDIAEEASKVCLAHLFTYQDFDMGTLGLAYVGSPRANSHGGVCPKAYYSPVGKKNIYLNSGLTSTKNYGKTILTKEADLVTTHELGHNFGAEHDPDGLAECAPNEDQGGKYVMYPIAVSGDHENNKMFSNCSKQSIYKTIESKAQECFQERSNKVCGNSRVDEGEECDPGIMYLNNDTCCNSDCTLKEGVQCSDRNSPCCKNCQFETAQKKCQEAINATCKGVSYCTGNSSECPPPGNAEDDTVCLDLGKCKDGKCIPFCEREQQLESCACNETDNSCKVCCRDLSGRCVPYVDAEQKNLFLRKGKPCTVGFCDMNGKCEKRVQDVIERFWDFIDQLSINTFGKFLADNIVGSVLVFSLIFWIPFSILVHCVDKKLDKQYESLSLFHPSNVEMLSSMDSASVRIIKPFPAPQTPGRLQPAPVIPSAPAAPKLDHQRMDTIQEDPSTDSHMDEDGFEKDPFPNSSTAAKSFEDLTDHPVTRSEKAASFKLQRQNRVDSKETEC

IC50	Structure (SMILES)
< 100 nM	Cc1cccn(CC2(c3ccc4c(c3)OCCCO4)NC(=O)NC2=O)c1=O (stereo not drawn) [Compound I-105]
< 100 nM	Cc1cccn(CC2(c3ccc(C#Cc4ccccc4)cc3)NC(=O)NC2=O)c1=O (stereo not drawn) [Compound I-106]
< 100 nM	Cc1cccn(CC2(c3ccc(CCc4ccccc4)cc3)NC(=O)NC2=O)c1=O (stereo not drawn) [Compound I-107]
< 100 nM	C=C(C)c1ccc(C2(Cn3cccc(C)c3=O)NC(=O)NC2=O)cc1 (stereo not drawn) [Compound I-108]
100 to 1000 nM	Cc1cccn(CC2(c3ccc(/C=C/C4CCCCC4)cc3)NC(=O)NC2=O)c1=O (stereo not drawn) [Compound I-109]
< 100 nM	Cc1cccn(CC2(c3ccc(C#Cc4ccccn4)cc3)NC(=O)NC2=O)c1=O (stereo not drawn) [Compound I-110]
< 100 nM	Cc1cccn(CC2(c3ccc(Oc4ccc(F)cc4)c(F)c3)NC(=O)NC2=O)c1=O (stereo not drawn) [Compound I-111]
< 100 nM	Cc1cccn(CC2(c3ccc(Oc4cccc(F)c4)c(F)c3)NC(=O)NC2=O)c1=O (stereo not drawn) [Compound I-112]
< 100 nM	COc1ccccc1Oc1ccc(C2(Cn3cccc(C)c3=O)NC(=O)NC2=O)cc1 (stereo not drawn) [Compound I-113]
< 100 nM	COc1ccccc1Oc1ccc(C2(Cn3cccc(C)c3=O)NC(=O)NC2=O)cc1F (stereo not drawn) [Compound I-114]
< 100 nM	Cc1cccn(CC2(c3ccc(CCc4ccccn4)cc3)NC(=O)NC2=O)c1=O (stereo not drawn) [Compound I-115]
< 100 nM	CCc1ccc(C2(Cn3cccc(C)c3=O)NC(=O)NC2=O)cc1 (stereo not drawn) [Compound I-116]
< 100 nM	Cc1cccn(CC2(c3ccc(C(C)C)cc3)NC(=O)NC2=O)c1=O (stereo not drawn) [Compound I-117]
100 to 1000 nM	Cc1cccn(CC2(c3ccc(CCC4CCCCC4)cc3)NC(=O)NC2=O)c1=O (stereo not drawn) [Compound I-118]
< 100 nM	CCOc1ccc(C2(Cn3cccc(C)c3=O)NC(=O)NC2=O)cc1 (stereo not drawn) [Compound I-119]
< 100 nM	Cc1cccn(CC2(c3ccc(OC(C)C)cc3)NC(=O)NC2=O)c1=O (stereo not drawn) [Compound I-120]
< 100 nM	Cc1cccn(CC2(c3ccc(CC(C)C)cc3)NC(=O)NC2=O)c1=O (stereo not drawn) [Compound I-121]
< 100 nM	Cc1cccn(CC2(c3ccc(Oc4cccnc4)c(F)c3)NC(=O)NC2=O)c1=O (stereo not drawn) [Compound I-122]
< 100 nM	Cc1cccn(CC2(c3ccc(Oc4ccccc4)c(Cl)c3)NC(=O)NC2=O)c1=O (stereo not drawn) [Compound I-123]
< 100 nM	Cc1cccn(CC2(c3ccc(OC4CCCC4)cc3)NC(=O)NC2=O)c1=O (stereo not drawn) [Compound I-124]
< 100 nM	Cc1cccn(CC2(c3ccc(Cl)c(Cl)c3)NC(=O)NC2=O)c1=O (stereo not drawn) [Compound I-125]
< 100 nM	Cc1cccn(CC2(c3ccc(F)c(Cl)c3)NC(=O)NC2=O)c1=O (stereo not drawn) [Compound I-126]
< 100 nM	COc1cc(C2(Cn3cccc(C)c3=O)NC(=O)NC2=O)cc(F)c1F (stereo not drawn) [Compound I-127]
< 100 nM	Cc1ccc(C2(Cn3cccc(C)c3=O)NC(=O)NC2=O)c(F)c1F (stereo not drawn) [Compound I-128]
< 100 nM	Cc1cc(C2(Cn3cccc(C)c3=O)NC(=O)NC2=O)ccc1OC1CCCCC1 (stereo not drawn) [Compound I-131]
< 100 nM	O=C1NC(=O)C(Cn2cccc(F)c2=O)(c2ccccc2)N1 (stereo not drawn) [Compound I-132]

IC50	Structure (SMILES)
< 100 nM	COc1ccc(C2(Cn3cccc(F)c3=O)NC(=O)NC2=O)cc1 (stereo not drawn) [Compound I-133]
< 100 nM	N#Cc1ccc(C2(Cn3cccc(F)c3=O)NC(=O)NC2=O)cc1 (stereo not drawn) [Compound I-134]
< 100 nM	O=C1NC(=O)C(Cn2cccc(F)c2=O)(c2ccc3ccccc3c2)N1 (stereo not drawn) [Compound I-135]
< 100 nM	O=C1NC(=O)C(Cn2cccc(Cl)c2=O)(c2ccc(F)cc2)N1 (stereo not drawn) [Compound I-136]
< 100 nM	COc1ccc(C2(Cn3cccc(Cl)c3=O)NC(=O)NC2=O)cc1 (stereo not drawn) [Compound I-137]
< 100 nM	N#Cc1ccc(C2(Cn3cccc(Cl)c3=O)NC(=O)NC2=O)cc1 (stereo not drawn) [Compound I-138]
< 100 nM	O=C1NC(=O)C(Cn2cccc(Br)c2=O)(c2ccccc2)N1 (stereo not drawn) [Compound I-139]
< 100 nM	O=C1NC(=O)C(Cn2cccc(C(F)(F)F)c2=O)(c2ccccc2)N1 (stereo not drawn) [Compound I-140]
< 100 nM	COc1ccc(C2(Cn3cccc(C(F)(F)F)c3=O)NC(=O)NC2=O)cc1 (stereo not drawn) [Compound I-141]
< 100 nM	N#Cc1ccc(C2(Cn3cccc(C(F)(F)F)c3=O)NC(=O)NC2=O)cc1 (stereo not drawn) [Compound I-142]
100 to 1000 nM	COc1cccn(CC2(c3ccccc3)NC(=O)NC2=O)c1=O (stereo not drawn) [Compound I-143]
100 to 1000 nM	C=C(C)c1cccn(CC2(c3ccc(OC)cc3)NC(=O)NC2=O)c1=O (stereo not drawn) [Compound I-144]
< 100 nM	O=C1NC(=O)C(Cn2cccc(F)c2=O)(c2ccc(F)c(F)c2)N1 (stereo not drawn) [Compound I-145]
< 100 nM	O=C1NC(=O)C(Cn2cccc(Cl)c2=O)(c2ccc(F)c(F)c2)N1 (stereo not drawn) [Compound I-146]
< 100 nM	O=C1NC(=O)C(Cn2cccc(Br)c2=O)(c2ccc(F)c(F)c2)N1 (stereo not drawn) [Compound I-147]
100 to 1000 nM	O=C1NC(=O)C(Cn2cccc(CO)c2=O)(c2ccc(F)c(F)c2)N1 (stereo not drawn) [Compound I-148]
< 100 nM	O=C1NC(=O)C(Cn2cccc(Br)c2=O)(c2ccc(Cc3ccccc3)cc2)N1 (stereo not drawn) [Compound I-149]
< 100 nM	O=C1NC(=O)C(Cn2cccc(Cl)c2=O)(c2ccc(Cc3ccccc3)cc2)N1 (stereo not drawn) [Compound I-150]
100 to 1000 nM	O=C1NC(=O)C(Cn2cccc(CO)c2=O)(c2ccc(Cc3ccccc3)cc2)N1 (stereo not drawn) [Compound I-151]
< 100 nM	O=C1NC(=O)C(Cn2cccc(F)c2=O)(c2ccc(Cc3ccccc3)cc2)N1 (stereo not drawn) [Compound I-152]
< 100 nM	Cc1cccn(CC2(c3cccc(F)c3F)NC(=O)NC2=O)c1=O (stereo not drawn) [Compound I-153]
< 100 nM	Cc1cccn(CC2(c3cc(F)ccc3F)NC(=O)NC2=O)c1=O (stereo not drawn) [Compound I-154]
< 100 nM	O=C1NC(=O)C(Cn2ccccc2=O)(c2ccc(F)c(F)c2)N1 (stereo not drawn) [Compound I-155]
100 to 1000 nM	O=C1NC(=O)C(Cn2ccccc2=O)(c2ccc(Cc3ccccc3)cc2)N1 (stereo not drawn) [Compound I-156]
< 100 nM	O=C1NC(=O)C(Cn2ccccc2=O)(c2cc(F)c(F)c(F)c2)N1 (stereo not drawn) [Compound I-157]

Reference: patent US10000476B2, “Pyridone derivative, pharmaceutical containing the same and methods of use thereof” (KAKEN PHARMACEUTICAL CO., LTD., priority 2011, dated 2018)
